Laboratory results taken from patent EP0718294A1, “2-Amino-1,3-thiazepines and their use as inhibitors of the nitrogene oxide synthase” (HOECHST AKTIENGESELLSCHAFT, priority 1994, dated 1996).
Structures can show the parent of a compound that is named as a salt.

Molecular target: T1, NO-Synthase (iNOS) (Mus musculus, UniProt P29477)
T1 construct: Während der Stimulation über 4 Stunden wird die Neusynthese des NO-produzierenden Enzyms NO-Synthase (iNOS) induziert; endogenous in cells; host or cells: RAW 264.7 mouse macrophages stimulated with LPS and γ-interferon
Experiment: NO measurement by oxyhaemoglobin on LPS/γ-interferon-stimulated macrophages (inhibition of NO release)
Assay type: cell-based, Maus
Details: Mäusemakrophagen RAW 264.7, stimulated 4 h with 140 ng LPS/ml + 5 U γIFN/ml; 120 min incubation with test substance; Extinktionsdifferenz 576-592 nm vs. stimulation control
Procedure: Die Hemmung der NO-Freisetzung durch die Verbindungen der allgemeinen Formel I kann auch durch NO-Messung mittels Oxyhämoglobin auf Makrophagen wie folgt bestimmt werden: Mäusemakrophagen (MM) des Stammes RAW 264.7 werden in Petrischalen (10 cm Durchmesser) angezüchtet. Als Nährmedium wird DMEM (Fa. Sigma Nr. D 5405), konditioniert mit 4 mM l-Glutamin, 3,5 g D-Glukose/l, 50 U/50 µg/ml Pen/Strep und 10 % FKS, eingesetzt unter 5 % CO2, 95 % Luftfeuchtigkeit, 37°C. Die subkonfluenten Zellen werden mit dem Zellschaber abgekratzt, in Medium aufgenommen, die Zellzahl bestimmt (Zählung in Trypanblaulösung 0,2 %) und in 24-Napfplatten (1 x 10^6 Zellen/ml, 1 ml/Napf) ausgesät.
Ca. 18 Stunden nach Aussaat werden die gut adherierten Mausmakrophagen mit LPS (Lipopolysaccharid von E. coli Serotyp 0111:B4, Fa. Sigma Nr. L 2630) und γ-Interferon (γIFN, Maus rekombinant, Firma Boehringer Mannheim Nr. 1276905) stimuliert. Dazu wird das Kulturmedium von den Zellen abgesaugt und 1 ml/Napf (24-Napfplatte) Inkubationsmedium (MEM ohne Phenolrot (Biochrom F0385)), konditioniert mit 4mM Glutamin, 3,5 g Glukose/l, 3,7 g NaHCO3/l, 110 mg Natriumpyruvat/l, 50 U/50 µg/ml Pen/Strep und 5 % FKS, aufgegeben. Pro ml Inkubationsmedium werden 1 µl LPS und 1 µl γIFN pipettiert.
Daraus ergeben sich folgende Konzentrationen der Stimulatoren: 140 ng LPS/ml + 5 U γIFN/ml [formula] […]

Molecule `NC1=NCCCCS1` [Beispiel 1, 2-Amino-4,5,6,7-tetrahydro-1,3-thiazepin-Hydrochlorid] has an IC50 of 1300 nM.
